“And” between values parts separate entries of the source, which are not always exact repeats. Equal values may be shown once. Where a name gives a salt, the structure may show the parent alone. Read-outs that look alike come from different tables or passages of the source.
What was measured:
PC-3 = test: In vitro tumor cell proliferation, PC-3; type: cell-based, human; conditions: many values given with an undefined *, read-out: In vitro Tumor Cell Proliferation (IC50, μM) Prostate PC-3
In short: (§1)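 Growth was quantified by sulforhodamine B staining of TCA-fixed cells after 3 days of drug plus 4 more days with fresh drug, or by CyQUANT after 3 days of drug and freezing at −80° C. Counted viable cells were plated and incubated overnight at 37° C before drug.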

MDA-MB-231 = test: In vitro tumor cell proliferation, MDA-MB-231; type: cell-based, human; conditions: sulforhodamine B or CyQUANT assay, many values given with an undefined *, read-out: In vitro Tumor Cell Proliferation (IC50, μM) Breast MDA-MB-231
In short: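 Proliferation quantified by SRB staining of TCA-fixed cells after 3 days of drug plus 4 days with replenished drug, following overnight attachment at 37 °C.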

HT-29 = test: In vitro tumor cell proliferation, HT-29; type: cell-based, human; conditions: many values given with an undefined *, read-out: In vitro Tumor Cell Proliferation (IC50, μM) Colon HT-29
In short: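 Growth was quantified either with CyQUANT, plates frozen at −80° C after 3 days of drug, or by sulforhodamine B staining of TCA-fixed cells after 3 days of drug plus 4 days with fresh drug. Trypan blue-excluding HT-29 cells were plated overnight at 37° C before dosing.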

A549 = test: In vitro tumor cell proliferation, A549; type: cell-based, human; conditions: many values given with an undefined *, read-out: In vitro Tumor Cell Proliferation (IC50, μM) Lung A549
In short: as §1

DU145 = test: In vitro tumor cell proliferation, DU145; type: cell-based, human; conditions: many values given with an undefined *, read-out: In vitro Tumor Cell Proliferation (IC50, μM) Prostate DU145
In short: as §1

cdk2/cyclin E = molecular target: T1, cdk2/cyclin E (Homo sapiens, UniProt P24941); test: Cyclin-Dependent Kinase 2 Assay (cdk2/cyclin E, GST-Rb substrate); type: biochemical; conditions: recombinant cdk2/cyclin E, 10 μM ATP, 30 min at 30° C., several values in a cell = separate determinations, read-out: CDK-2 Inhibition IC50
T1 construct: made in house; host or cells: insect cells (baculovirus co-infection)
Protocol: Substrate: GST-Rb as described above for cdk4/cyclin D1
Assay conditions for cdk2/cyclin E were identical to those for cdk4/cyclin D1 including the substrate. The concentration of recombinant cdk2/cyclin E in the assay was 0.1 μg per 100 μl assay. Incubation was for 30 min at 30° C.

cdk4/cyclin D1 = molecular target: T2, cdk4/cyclin D1 (Homo sapiens, UniProt P11802); test: Cyclin-dependent Kinase 4 Assay (cdk4/cyclin D1, GST-Rb substrate); type: biochemical; conditions: cdk4/cyclin D1 insect cell lysate, 10 μM ATP, 30 min at 37° C., several values = separate determinations, read-out: CDK4 Inhibition IC50
T2 construct: made in house; host or cells: Sf9 insect cells (Bac-to-Bac baculovirus, pFastBac)
T2 sequence (P11802 whole entry): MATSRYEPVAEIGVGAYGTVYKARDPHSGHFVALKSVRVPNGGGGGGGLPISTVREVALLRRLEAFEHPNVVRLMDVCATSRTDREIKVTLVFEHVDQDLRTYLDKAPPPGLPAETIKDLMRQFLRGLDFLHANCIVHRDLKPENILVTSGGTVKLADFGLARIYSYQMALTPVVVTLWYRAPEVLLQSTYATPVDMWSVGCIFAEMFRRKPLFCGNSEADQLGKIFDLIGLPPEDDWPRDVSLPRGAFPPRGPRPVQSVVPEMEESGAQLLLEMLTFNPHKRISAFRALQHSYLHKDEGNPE
T2 sequence (P24385 whole entry partner): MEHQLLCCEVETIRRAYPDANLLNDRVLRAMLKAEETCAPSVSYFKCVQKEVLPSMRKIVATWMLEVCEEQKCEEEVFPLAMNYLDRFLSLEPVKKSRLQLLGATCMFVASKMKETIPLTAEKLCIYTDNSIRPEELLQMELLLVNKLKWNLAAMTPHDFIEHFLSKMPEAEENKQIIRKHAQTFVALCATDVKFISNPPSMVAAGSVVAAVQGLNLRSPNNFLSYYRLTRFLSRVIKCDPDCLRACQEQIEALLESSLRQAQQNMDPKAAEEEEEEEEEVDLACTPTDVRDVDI
In short: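 IC50 against cdk4 measured by scintillation counting of bead-bound GST-Rb (0.5 μg) after filtration and four TNEN washes. Reaction was 30 min at 37 °C in HEPES pH 7.5 buffer with 10 mM MgCl2 and 1 mM EGTA. Enzyme source was 0.1 μg Sf9 lysate coinfected with cdk4 and cyclin D1.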

MDA-MB-435 = test: In vitro tumor cell proliferation, MDA-MB-435; type: cell-based; conditions: values given with an undefined *, read-out: In vitro Tumor Cell Proliferation (IC50, μM) Breast MDA-MB-435
In short: as §1

Colo-205 = test: In vitro tumor cell proliferation, Colo-205; type: cell-based; conditions: values given with an undefined *, read-out: In vitro Tumor Cell Proliferation (IC50, μM) Colon Colo-205
In short: as §1

DMS-114 = test: In vitro tumor cell proliferation, DMS-114; type: cell-based, human; conditions: many values given with an undefined *, read-out: In vitro Tumor Cell Proliferation (IC50, μM) Lung DMS-114
In short: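 Human small cell lung carcinoma DMS-114 cells plated overnight, then drug-treated for 3 days, medium and drug renewed, and incubated 4 more days. Growth read by sulforhodamine B staining after TCA fixation; alternatively by CyQUANT after 3 days' drug exposure and freezing at −80 °C.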

[1] = Homo sapiens, MDA-MB-231, MDA-MB-231
[2] = Homo sapiens, MDA-MB-435, MDA-MB-435
[3] = Homo sapiens, COLO 205, Colo-205

Row | IC50 (PC-3; Homo sapiens, PC-3, PC-3) [µM] | IC50 (PC-3; PC-3, dihydrochloride) | IC50 (MDA-MB-231; [1]) [µM] | IC50 (MDA-MB-231; MDA-MB-231, dihydrochloride) | IC50 (HT-29; HT-29, dihydrochloride) | IC50 (HT-29; Homo sapiens, HT-29, HT-29) [µM] | IC50 (A549; A549, dihydrochloride) [µM] | IC50 (A549; Homo sapiens, A549, A549) [µM] | IC50 (DU145; DU145, dihydrochloride) | IC50 (DU145; Homo sapiens, DU-145, DU145) [µM] | IC50 (cdk2/cyclin E) | IC50 (cdk4/cyclin D1) | IC50 (MDA-MB-435; [2]) [µM] | IC50 (MDA-MB-435; MDA-MB-435, dihydrochloride) | IC50 (Colo-205; Colo-205, dihydrochloride) | IC50 (Colo-205; [3]) [µM] | IC50 (DMS-114; DMS-114, dihydrochloride) | IC50 (DMS-114; Homo sapiens, DMS-114, DMS-114) [µM] | Structure (SMILES) | other results
1 | 3.1 | 2.7 µM and 2.5 µM and 2.2 µM | 2.7 | 2.6 µM and 2.5 µM | 2.4 µM and 2.3 µM | 2.5 | 2.5 | 2.3 | 3.2 µM and 3 µM | 3.1 | 2000 nM and 950 nM and 760 nM | 4000 nM | 3.1 | 3.5 µM and 3 µM and 3.3 µM | 2.8 µM and 2.7 µM | 2.9 | 2.1 µM | 2.6 | CCCCCc1ccc(Nc2nc(N[C@H]3CC[C@H](N)CC3)nc3c2ncn3C2CCCC2)cc1 [Example 23, 2-[Trans-(4-aminocyclohexyl)amino]-6-[(4-pentyl)phenylamino]-9-cyclopentylpurine dihydrochloride] | –
2 | 3.2 | 3.5 µM | 4.2 | 3.6 µM | 4.2 µM | 4.4 | 2.6 | 2.9 | 2.9 µM | 3 | 11 nM and 40 nM | 1000 nM and 710 nM | 5.9 | 6 µM | 4.6 µM | 2.8 | 3.3 µM | 2.6 | COCCCCNc1nc(N[C@H]2CC[C@H](N)CC2)nc2c1ncn2C1CCCC1 [Example 29, 2-[Trans-(4-aminocyclohexyl)amino]-6-(4-methoxybutylamino)-9-cyclopentylpurine dihydrochloride] | –
3 | 0.2 | – | 0.17 | – | – | 0.19 | – | 0.12 | – | 0.15 | 190 nM and 140 nM | 410 nM | 0.26 | – | – | 0.18 | – | 0.19 | N[C@H]1CC[C@H](Nc2nc(NC3CCN(Cc4ccccc4)CC3)c3ncn(C4CCCC4)c3n2)CC1 [Example 33, 2-[Trans-(4-aminocyclohexyl)amino]-6-[4-(1-benzyl)piperidinylamino]-9-cyclopentylpurine trihydrochloride] | IC50 (PC-3; PC-3, trihydrochloride): 0.18 µM; IC50 (MDA-MB-231; MDA-MB-231, trihydrochloride): 0.21 µM; IC50 (HT-29; HT-29, trihydrochloride): 0.21 µM; IC50 (MDA-MB-435; MDA-MB-435, trihydrochloride): 0.28 µM; IC50 (DMS-114; DMS-114, trihydrochloride): 0.13 µM
4 | 3.1 | 3.8 µM | 3.2 | – | – | 4 | 3.1 | 5.6 | 3.4 µM | 5.4 | 520 nM | 4500 nM | 4.2 | 2.2 µM | – | 3.1 | 3.1 µM | 3.6 | CCCCCCCCCCCCNc1nc(N[C@H]2CC[C@H](N)CC2)nc2c1ncn2C1CCCC1 [Example 36, 2-[Trans-(4-aminocyclohexyl)amino]-6-(dodecylamino)-9-cyclopentylpurine dihydrochloride] | –
5 | 2.3 | 2.8 µM and 2.5 µM | 3 | – | 1.8 µM and 2.5 µM | 3.2 | – | 1.3 | 2.6 µM and 3 µM | 2.7 | 690 nM | 5200 nM | 3.4 | 3.2 µM and 2.7 µM | 1.6 µM and 1.3 µM | 1.7 | 1.7 µM and 1.5 µM | 1.3 | COc1ccc(CNc2nc(N[C@H]3CC[C@H](N)CC3)nc3c2ncn3C(C)C)cc1 [Example 37, 2-[Trans-(4-aminocyclohexyl)amino]-6-[(4-methoxybenzyl)amino]-9-(2-propyl)purine dihydrochloride] | –

Reference: patent US6479487B1, “6, 9-disubstituted 2-[trans-(4-aminocyclohexyl)amino] purines” (Aventis Pharmaceuticals Inc., priority 1998, dated 2002)
